Reference: US4731370A, “Pyridyl ester containing 1,4-dihydropyridine derivatives and salts thereof and pharmaceutical composition containing the same” (Toyama Chemical Co., Ltd., priority 1984, dated 1988)
Structures can show the parent of a compound that is named as a salt.

Tests used:
[1] = tested on: coronary vessel (isolated guinea pig heart); assay: Coronary vasodilating activity (isolated perfused guinea pig heart, coronary effluent); parameters: species or system guinea pig (Hartley strain); conditions: Langendorff perfusion, 0.1 ml into aorta, hydrochloride
Description: (§1) The compounds of this invention to be tested were used in the form of a hydrochloride.
The heart of a guinea pig (Hartley strain, male, 500-700 g, 3 heads per group) was isolated and set in the Landendorff perfusing apparatus. About 0.5% defibrinated blood was fed to the apparatus, and the Krebs bicarbonate solution, into which a mixed gas consisting of 95% of O2 and 5% of CO2 had been bubbled was perfused over the heart, after which a 1 mg/ml solution of the test compound in an aqueous solution containing 10% by volume of dimethylsulfoxide and 10% of polyoxyethylfatty acid glyceride [Cremophor EL manufactured by Sigma] was prepared, diluted with a saline solution to the desired concentration, and then administered into the heart in an amount of 0.1 ml through the rubber tube attached to the cannula inserted retrogressively into the aorta. The vasodilating activity was determined by measuring the amount of the solution effluent from the coronary vessel after passing through the aorta by means of an electric drop counter (universal drop counter manufactured by Natsume Seisakusho) and indicated as ED50 value which is the amount necessary for the amount of the effluent solution to increase 50% as compared with those before addition of the test compound.

[2] = tested on: vertebral artery blood flow of a dog; assay: Vertebral artery blood flow increasing activity; assay type: in vivo, dog (mongrel); conditions: i.v., amount with same activity as 1 mg/kg (i.v.) papaverine hydrochloride, ratio to papaverine hydrochloride
Description: as §1
The vertebral artery blood flow of a dog (mongrel, 12-22 kg, 2-3 heads per group) anesthetized with pentobarbital sodium (30 mg/kg, i.v.) was measured by means of an electromagnetic flow meter (MFV-2100 manufactured by Nihon Kohden Kogyo).
The test compounds 1, 3 and 10 were adjusted to a concentration of 1 mg/ml with distilled water, and then diluted with a saline solution to the desired concentrations, after which the thus diluted solutions were intravenously administered, and the test compounds 12, 15, 18, 19, 20, 24, 29, 30, 32 and 33 were formed into solutions in the same manner as in Item 1 above and then intravenously administered.

[3] = tested on: Thromboxane-Synthesizing Enzyme; assay: Thromboxane-synthesizing enzyme-inhibitory activity (MDA production in platelet-rich plasma after oral dosing); assay type: in vivo, rat (Wistar strain); conditions: rat, 3 mg/kg, blood after one hour
Description: as §1
To a rat (Wistar strain, male, 300-350 g, 4 heads per group) which had been starved overnight was orally administered a test compound solution, and blood was collected from the abdominal aorta using citric acid after one hour. Two milliliters of a 1×10^9 /ml platelet-rich plasma (PRP) was preincubated at 37° C. for 2 minutes. Subsequently, 0.1 ml of 10 mM sodium archidonate was added, and the resulting mixture was subjected to reaction for 6 minutes, after which indomethacin was added thereto to terminate the reaction. The reaction mixture was subjected to deproteinization treatment and reacted with thiobarbituric acid (TBA) reagent, after which the reaction mixture was subjected to extraction with 3 ml of n-butanol. The resulting extract was subjected to colorimetry (λ=532 nm) to determine the amount of malondialdehyde (MDA) produced. As to the platelet-poor plasma (PPP) obtained from the same rat as above, the same procedure as above was repeated to determine the amount of MDA produced, and the difference between the two is indicated as MDA value. Comparing with the MDA values of the control group, the MDA production-inhibition (%) was determined.
The test compounds 1-9 were adjusted to the desired concentrations with water and the test compounds 11-33 and nicardipine were adjusted to a concentration of 5 mg/ml with an aqueous solution containing 10% of each of dimethyl sulfoxide and Cremophor and then diluted with water to the desired concentrations.

[4] = tested on: mouse pulmonary infraction model; assay: Antithrombosis activity, mouse pulmonary infraction model, paralytic time-shortening (0.15 ml epinephrine/collagen); assay type: in vivo, mouse (ICR strain); conditions: 1 h, oral, challenge after one hour, 10 mice, read-out: Paralytic time-shortening percentage
Description: as §1
Comparing the paralytic time of the control group, the paralytic time-shortening percentage due to the compound to be tested was determined.
(§2) The test compounds shown in Table 4 were adjusted to the desired concentrations with water, and the test compounds shown in Table 5 were adjusted to a concentration of 5 mg/ml with an aqueous solution containing 10% by volume of each of dimethyl sulfoxide and Cremophor, and then diluted with water to the desired concentrations.

[5] = tested on: mouse pulmonary infraction model; assay: Antithrombosis activity, mouse pulmonary infraction model, prevention of death and paralysis (0.10 ml epinephrine/collagen); assay type: in vivo, mouse (ICR strain); conditions: Mus musculus, po, 1 h, read-out: Preventive percentage of death + paralysis for 10 minutes or more
Description: as §1
According to the G. DiMinno and M. J. Silver method [J. Pharmacol. Exp. Therap., 225 (1) 57-60 (1983)], a solution of the compound to be tested was orally administered to a mouse (ICR strain, male, 4 weeks old), and 0.15 ml of a mixed solution of epinephrine (100 μM) and collagen (150 μg/ml) was intravenously administered to the mouse after one hour, after which the paralytic time was measured. Comparing the paralytic time of the control group, the paralytic time-shortening percentage due to the compound to be tested was determined. The results obtained are shown in Table 4, in which the case where the paralytic time was 15 minutes was calculated as death.
Moreover, the same experiment was repeated, except that 0.10 ml of a mixed solution of epinephrine (100 μM) and collagen (150 μg/ml) was intravenously administered to the mouse and the effect of preventing the appearance of death and a case where the paralytic time was 10 minutes or more was checked and the results thereof are shown in Table 5.
as §2

[6] = Acute toxicity, intravenous, mice; conditions: mouse, in vivo, mice (ICR, male, 4 weeks old, 5 per group)

Structure (SMILES)	ED50 (amount necessary for the amount of the effluent solution to increase 50%) [1] [μg/i.c.]	Effect ratio [2]	MDA production-inhibition [3] [%]	inhibition in vivo at 10 mg/kg [4] [%]	responders at 10 mg/kg [5] [%]	inhibition in vivo at 300 mg/kg ([4]; 300 mg/kg) [%]	responders at 30 mg/kg [5] [%]	LD50 [6] [mg/kg]
COC(=O)C1=C(C)NC(C)=C(C(=O)OCCN(C)Cc2ccccc2)C1c1cccc([N+](=O)[O-])c1 (stereo not shown) [Nicardipine, 3-[2-(N-benzyl-N-methylamino)ethyl]5-methyl 2,6-dimethyl-4-(3-nitrophenyl)-1,4-dihydropyridine-3,5-dicarboxylate hydrochloride, reference compound]	0.042	220	2.7	6.3	0	–	–	–
C/C(=C\c1ccc(Cc2cccnc2)cc1)C(=O)O [OKY-1581, Sodium (E)-3-[4-(pyridin-3-ylmethyl)phenyl]-2-methylpropenoate, reference compound]	–	–	–	–	–	9.5	10	–
COC(=O)C1=C(C)NC(C)=C(C(=O)OCCN(C)C/C(C)=C/c2ccc(Cc3cccnc3)cc2)C1c1cccc([N+](=O)[O-])c1 (stereo not shown) [compound 2]	–	–	63.2	84.1	–	–	–	≥ 30
CC1=C(C(=O)OCCN(C)C/C=C/c2ccc(Cc3cccnc3)cc2)C(c2cccc([N+](=O)[O-])c2)C(C(=O)OC(C)C)=C(C)N1 (stereo not shown) [compound 7]	–	–	52.8	36.4	–	–	–	≥ 30
CC1=C(C(=O)OCCNC/C(C)=C/c2ccc(Cc3cccnc3)cc2)C(c2cccc([N+](=O)[O-])c2)C(C(=O)OC(C)C)=C(C)N1 (stereo not shown) [compound 8]	–	–	64.9	47.9	–	–	–	≥ 30
CCOC(=O)C1=C(C)NC(C)=C(C(=O)OCCN(C)C/C(C)=C/c2ccc(Oc3cccnc3)cc2)C1c1cccc([N+](=O)[O-])c1 (stereo not shown) [compound 10]	–	641	–	79.2	–	–	–	≥ 30
